The values that follow come from patent US6384048B1, “Imidazonaphthyridines” (Byk Gulden Lomberg Chemische Fabrik GmbH, priority 1998, dated 2002).

Series [1] deals with pentagastrin-stimulated acid secretion of the perfused rat stomach. Description: Secretion-inhibiting action on the perfused rat stomach (pentagastrin-stimulated acid secretion, in vivo). The conditions noted are these: anesthetized CD rat, dose 3 μmol/kg i.v. An excerpt: Testing of the Secretion-inhibiting Action on the Perfused Rat Stomach
In Table A which follows, the influence of the compounds according to the invention on the pentagastrin-stimulated acid secretion of the perfused rat stomach after intravenous administration in vivo is shown.
The abdomen of anesthetized rats (CD rat, female, 200-250 g; 1.5 g/kg i.m. urethane) was opened after tracheotomy by a median upper abdominal incision and a PVC catheter was fixed transorally in the esophagus and another via the pylorus such that the ends of the tube just projected into the gastric lumen. The catheter leading from the pylorus led outwards into the right abdominal wall through a side opening.
After thorough rinsing (about 50-100 ml), warm (37° C.) physiological NaCl solution was continuously passed through the stomach (0.5 ml/min, pH 6.8-6.9; Braun-Unita 1). The pH (pH meter 632, glass electrode EA 147; φ=5 mm, Metrohm) and, by titration with a freshly prepared 0.01 N NaOH solution to pH 7 (Dosimat 665 Metrohm), the secreted HCl were determined in the effluent in each case collected at an interval of 15 minutes.
The gastric secretion was stimulated by continuous infusion of […] (=1.65 ml/h) of i.v. pentagastrin (left femoral vein) about 30 min after the end of the operation (i.e. after determination of 2 preliminary fractions). […]

As a reminder, the melting point is the temperature, or range, at which the solid turns liquid. In the case of `CCS[C@H]1c2ccn3c(C)c(C)nc3c2N[C@H](c2ccccc2)[C@H]1O` [Example 6, (7S,8R,9R)-2,3-dimethyl-8-hydroxy-7-(ethylthio)-9-phenyl-7,8,9,10-tetrahydro-imidazo[1,2-h][1,7]naphthyridine], the melting point was in the range of 235 to 236 °C.

Compound `CCS[C@@H]1c2ccn3c(C)c(C)nc3c2N[C@H](c2ccccc2)[C@H]1O` [Example 5, (7R,8R,9R)-2,3dimethyl-8-hydroxy-7-(ethylthio)-9-phenyl-7,8,9,10-tetrahydro-imidazo[1,2-h][1,7]naphthyridine] yielded a melting point of 220 to 223 °C. In series [1], the “Inhibition of acid secretion” value was 100%.

With `Cc1nc2c3c(ccn2c1C)[C@@H](OCC[S+](C)[O-])[C@H](O)[C@@H](c1ccccc1)N3` (stereo partly drawn) [Example 3, (7R,8R,9R)-2,3-dimethyl-8-hydroxy-7-(2-methylsulphinylethoxy)-9phenyl-7,8,9,10-tetrahydroimidazo[1,2-h][1,7]naphthyridine], the melting point lay in the range of 105 to 106 °C.

`CSCCO[C@@H]1c2ccn3c(C)c(C)nc3c2N[C@H](c2ccccc2)[C@H]1O` [Example 1, (7R,8R,9R)-2,3-dimethyl-8-hydroxy-7-(2-methylthioethyloxy)-9-phenyl-7,8,9,10-tetrahydroimidazo[1,2-h][1,7]naphthyridine] registered a melting point of 118 to 119 °C. Moreover, in series [1], the “Inhibition of acid secretion” value is 100%.

Take `CSCCO[C@H]1c2ccn3c(C)c(C)nc3c2N[C@H](c2ccccc2)[C@H]1O` [Example 2, (7S,8R,9R)-2,3-dimethyl-8-hydroxy-7-(2-methylthioethyloxy)9-phenyl-7,8,9,10-tetrahydroimidazo[1,2-h][1,7]naphthyridine]: the melting point was in the range of 109 to 110 °C.

The compound `Cc1nc2c3c(ccn2c1C)[C@H](OCC[S+](C)[O-])[C@H](O)[C@@H](c1ccccc1)N3` (stereo partly drawn) [Example 4, (7S,8R,9R)-2,3-dimethyl-8-hydroxy-7-(2-methylsulphinylethoxy)-9-phenyl-7,8,9,10-tetrahydroimidazo[1,2-h][1,7]naphthyridine] yielded a melting point of 85 to 87 °C.
